In PubChem BioAssay AID286 (DTP/NCI, 2004):
Several values for one entry are separate records, joined by “and”; a condition that tells them apart may be missing. Equal entries are not always repeated. Toxic doses and inconclusive results are not listed. Starred links: 1 amine or outer side, 2 acyl side, 3 side chain; linkers in the order of their positions; H or OH if unused. Positions of bridges follow the written chain, without caps; N, C: chain ends. Non-standard residues stand in square brackets, D forms with d. Residues, ends and D or L forms follow the SMILES beside them. Chains are numbered I, II in the order given. ξ: configuration not given here. *: point of attachment. Quinaldoyl(3-OH,6-OMe) = COc1ccc2nc(C(=O)*)c(O)cc2c1; X1 = CCC(=O)OC1CC=NN([*:1])C1C(=O)[*:2]; X2 = CC(=O)OC1CC=NN([*:1])C1C(=O)[*:2]; ξNMeVal(3-OH) = CNC(C(=O)O)C(C)(C)O; Sar = CNCC(=O)O

Test system: BDF1 mice, M5076 sarcoma ip, median survival T/C
Test: NCI In Vivo Anticancer Drug Screen. Data for tumor model Sarcoma M5076 (intraperitoneal) in B6D2F1 (BDF1) mice
Conditions: endpoint: median survival time, higher = longer survival
Description: The antitumor activity of compounds was measured in mice bearing transplantable tumors. Survival or tumor size were measured and the results are expressed as the measurement made in the treated group (T) divided by the measurement made in the vehicle treated control group (C). The tumor model used in this assay is Sarcoma M5076 (intraperitoneal) in B6D2F1 (BDF1) mice

[1] = dose: 50.0 mg/kg/injection, schedule: Q04DX004 (ip), vehicle: saline
[2] = dose: 100.0 mg/kg/injection, schedule: Q04DX004 (ip), vehicle: saline

In the case of `CC1CCC(NC(=O)N(CCCl)N=O)CC1` (stereo not drawn), the T/C (dose: 3.0 mg/kg/injection, schedule: Q04DX004 (ip), vehicle: Klucel (hydroxypropylcellulose) (HPC)) is reported as 216 % of control and 163 % of control, the T/C (dose: 6.0 mg/kg/injection, schedule: Q04DX004 (ip), vehicle: Klucel (hydroxypropylcellulose) (HPC)) is reported as 189 % of control and 193 % of control and 216 % of control and the T/C (dose: 12.0 mg/kg/injection, schedule: Q04DX004 (ip), vehicle: Klucel (hydroxypropylcellulose) (HPC)) is reported as 216 % of control and 233 % of control and 320 % of control.

In the case of `CN=C(N)c1ccc(N=C(N)c2ccc(C(N)=Nc3ccc(C(N)=NC)cc3)cc2)cc1`, the T/C (dose: 1.3 mg/kg/injection, schedule: Q01DX005 (iv), vehicle: saline) is reported as 98 % of control, the T/C (dose: 1.3 mg/kg/injection, schedule: Q01DX005 (iv), vehicle: water) is reported as 100 % of control and the T/C (dose: 3.6 mg/kg/injection, schedule: Q01DX005 (iv), vehicle: saline) is reported as 104 % of control. The T/C (dose: 3.6 mg/kg/injection, schedule: Q01DX005 (iv), vehicle: water) was 100 % of control, the T/C (dose: 3.75 mg/kg/injection, schedule: Q01DX005 (iv), vehicle: water) was 99 % of control and the T/C (dose: 3.75 mg/kg/injection, schedule: Q01DX005 (sc), vehicle: water) was 101 % of control. For the same compound, the T/C (dose: 6.0 mg/kg/injection, schedule: Q01DX005 (iv), vehicle: saline) was 104 % of control, the T/C (dose: 6.0 mg/kg/injection, schedule: Q01DX005 (iv), vehicle: water) was 99 % of control and the T/C (dose: 7.5 mg/kg/injection, schedule: Q01DX005 (iv), vehicle: water) was 108 % of control. The T/C (dose: 15.0 mg/kg/injection, schedule: Q01DX005 (ip), vehicle: water) was 165 % of control, the T/C (dose: 15.0 mg/kg/injection, schedule: Q01DX005 (sc), vehicle: water) was 120 % of control and the T/C (dose: 18.0 mg/kg/injection, schedule: Q01DX005 (ip), vehicle: saline) was 164 % of control. For the same compound, the T/C (dose: 18.0 mg/kg/injection, schedule: Q01DX005 (ip), vehicle: water) was 164 % of control, the T/C (dose: 30.0 mg/kg/injection, schedule: Q01DX005 (ip), vehicle: saline) was 180 % of control and the T/C (dose: 30.0 mg/kg/injection, schedule: Q01DX005 (ip), vehicle: water) was 172 % of control.

With `COC1N(C2CC(O)C(CO)O2)C(=O)NC(=O)C1(F)Br` (stereo not drawn) the T/C (dose: 25.0 mg/kg/injection, schedule: Q04DX004 (ip), vehicle: saline) was 110 % of control, the T/C [1] was 115 % of control and the T/C [2] was 116 % of control. For the same compound, the T/C (dose: 400.0 mg/kg/injection, schedule: Q04DX004 (ip), vehicle: saline) was 124 % of control.

`COc1cc2c(cc1OC)[C@@H]1C(=O)c3ccc4c(c3O[C@@H]1CO2)C[C@H](C(C)C)O4` was tested, and the T/C (dose: 1.56 mg/kg/injection, schedule: Q01DX009 (ip), vehicle: Klucel (hydroxypropylcellulose) (HPC)) was 112 % of control and 114 % of control, the T/C (dose: 3.12 mg/kg/injection, schedule: Q01DX009 (ip), vehicle: Klucel (hydroxypropylcellulose) (HPC)) was 110 % of control and the T/C (dose: 6.25 mg/kg/injection, schedule: Q01DX009 (ip), vehicle: Klucel (hydroxypropylcellulose) (HPC)) was 122 % of control. For the same compound, the T/C (dose: 12.5 mg/kg/injection, schedule: Q01DX009 (ip), vehicle: Klucel (hydroxypropylcellulose) (HPC)) was 124 % of control.

With `O=c1[nH]cc(F)c(=O)[nH]1` the T/C (dose: 6.25 mg/kg/injection, schedule: Q04DX005 (ip), vehicle: saline) was 185 % of control, the T/C (dose: 16.0 mg/kg/injection, schedule: Q01DX009 (ip), vehicle: saline) was 117 % of control and the T/C (dose: 21.6 mg/kg/injection, schedule: Q04DX004 (ip), vehicle: saline) was 123 % of control. The T/C (dose: 50.0 mg/kg/injection, schedule: Q04DX005 (ip), vehicle: saline) was 112 % of control, the T/C [2] was 154 % of control and the T/C (dose: 100.0 mg/kg/injection, schedule: Q04DX005 (ip), vehicle: saline) was 176 % of control.

With `N[C@H](C(=O)O)[C@@H]1CC(Cl)=NO1` the T/C (dose: 15.0 mg/kg/injection, schedule: Q04DX005 (ip), vehicle: saline) was 113 % of control, the T/C (dose: 60.0 mg/kg/injection, schedule: Q04DX005 (ip), vehicle: saline) was 160 % of control and the T/C (dose: 120.0 mg/kg/injection, schedule: Q04DX005 (ip), vehicle: saline) was 195 % of control and 160 % of control.

`CCN(CC)CCCNc1nccc2c(C)c3[nH]c4ccncc4c3cc12` was tested, and the T/C (dose: 0.63 mg/kg/injection, schedule: Q04DX004 (ip), vehicle: other) was 152 % of control, the T/C (dose: 1.25 mg/kg/injection, schedule: Q04DX004 (ip), vehicle: other) was 191 % of control and the T/C (dose: 2.5 mg/kg/injection, schedule: Q04DX004 (ip), vehicle: other) was 179 % of control. For the same compound, the T/C (dose: 5.0 mg/kg/injection, schedule: Q04DX004 (ip), vehicle: other) was 260 % of control and the T/C (dose: 10.0 mg/kg/injection, schedule: Q04DX004 (ip), vehicle: other) was 208 % of control.

With `COC1CC(C)C(OC)C2=CC(=O)C=C(NC(=O)/C(C)=C/C=C\C(C)C(OC(N)=O)/C(C)=C\C(C)C1OC)C2=O` (stereo not drawn) the T/C (dose: 6.25 mg/kg/injection, schedule: Q04DX004 (ip), vehicle: saline + Tween-80 + alcohol) was 124 % of control and the T/C (dose: 12.5 mg/kg/injection, schedule: Q04DX004 (ip), vehicle: saline + Tween-80 + alcohol) was 124 % of control.

In the case of `CCC(=O)OC1CC=NN2C(=O)C(NC(=O)c3nc4ccc(OC)cc4cc3O)COC(=O)C(C(C)(C)O)N(C)C(=O)CN(C)C(=O)CNC(=O)C3C(OC(C)=O)CC=NN3C(=O)C(NC(=O)c3nc4ccc(OC)cc4cc3O)COC(=O)C(C(C)(C)O)N(C)C(=O)CN(C)C(=O)CNC(=O)C12` (stereo not drawn) (I: {Quinaldoyl(3-OH,6-OMe)}-S[X1]G[Sar][ξNMeVal(3-OH)] / II: {Quinaldoyl(3-OH,6-OMe)}-S[X2]G[Sar][ξNMeVal(3-OH)]; ester I:1-II:C, I:C-II:1; configuration not given here), the T/C (dose: 18.75 micrograms/kg/injection, schedule: Q01DX009 (ip), vehicle: DMSO) is reported as 117 % of control, the T/C (dose: 37.5 micrograms/kg/injection, schedule: Q01DX009 (ip), vehicle: DMSO) is reported as 165 % of control and 169 % of control and the T/C (dose: 75.0 micrograms/kg/injection, schedule: Q01DX009 (ip), vehicle: DMSO) is reported as 191 % of control and 160 % of control. The T/C (dose: 150.0 micrograms/kg/injection, schedule: Q01DX009 (ip), vehicle: DMSO) was 165 % of control.

With `COc1cc2nc3occc3c(OC)c2cc1OCC(O)C(C)(C)O` (stereo not drawn) the T/C (dose: 2.0 mg/kg/injection, schedule: Q01DX009 (ip), vehicle: Klucel (hydroxypropylcellulose) (HPC)) was 106 % of control, the T/C (dose: 4.0 mg/kg/injection, schedule: Q01DX009 (ip), vehicle: Klucel (hydroxypropylcellulose) (HPC)) was 117 % of control and the T/C (dose: 8.0 mg/kg/injection, schedule: Q01DX009 (ip), vehicle: Klucel (hydroxypropylcellulose) (HPC)) was 106 % of control. For the same compound, the T/C (dose: 16.0 mg/kg/injection, schedule: Q01DX009 (ip), vehicle: Klucel (hydroxypropylcellulose) (HPC)) was 113 % of control and the T/C (dose: 32.0 mg/kg/injection, schedule: Q01DX009 (ip), vehicle: Klucel (hydroxypropylcellulose) (HPC)) was 106 % of control.

For `COC1C(O)CC(OC2CC(Oc3cc4cc5c(c(O)c4c(O)c3C)C(=O)[C@@H](OC3CC(OC4CC(OC6CC(C)(O)C(OC(C)=O)C(C)O6)C(O)C(C)O4)C(O)C(C)O3)[C@H]([C@H](OC)C(=O)[C@@H](O)[C@@H](C)O)C5)OC(C)C2OC(C)=O)OC1C` (stereo partly drawn), the T/C (dose: 37.5 micrograms/kg/injection, schedule: Q01DX009 (ip), vehicle: water) was 168 % of control and the T/C (dose: 75.0 micrograms/kg/injection, schedule: Q01DX009 (ip), vehicle: water) was 163 % of control.

For `COc1cc(NCc2ccc3nc(N)nc(N)c3c2C)cc(OC)c1OC` (tested in a mixture with another compound), the T/C (dose: 10.0 mg/kg/injection, schedule: Q04DX005 (ip), vehicle: water) was 108 % of control and the T/C (dose: 40.0 mg/kg/injection, schedule: Q04DX005 (ip), vehicle: water) was 120 % of control.

In the case of `C=C1C(O)C2OC3(CCC(/C=C/C(C)C4CC5(C)SC5C5(OC(CC(C)(O)C(=O)O)CCC5O)O4)O3)CCC2OC1C(O)CC(C)C1OC2(CCCCO2)CCC1C` (stereo not drawn), the T/C (dose: 0.5 micrograms/kg/injection, schedule: Q01DX009 (ip), vehicle: saline + alcohol) is reported as 108 % of control, the T/C (dose: 1.0 micrograms/kg/injection, schedule: Q01DX009 (ip), vehicle: saline + alcohol) is reported as 111 % of control and the T/C (dose: 2.0 micrograms/kg/injection, schedule: Q01DX009 (ip), vehicle: saline + alcohol) is reported as 120 % of control. The T/C (dose: 2.5 micrograms/kg/injection, schedule: Q01DX009 (ip), vehicle: saline + alcohol) was 155 % of control.

For `CN(C)c1nc(N(C)C)nc(N(C)C)n1`, the T/C (dose: 40.0 mg/kg/injection, schedule: Q04DX005 (ip), vehicle: Klucel (hydroxypropylcellulose) (HPC)) was 160 % of control, the T/C (dose: 80.0 mg/kg/injection, schedule: Q04DX005 (ip), vehicle: Klucel (hydroxypropylcellulose) (HPC)) was 188 % of control and the T/C (dose: 100.0 mg/kg/injection, schedule: Q04DX005 (ip), vehicle: Klucel (hydroxypropylcellulose) (HPC)) was 112 % of control. The T/C (dose: 160.0 mg/kg/injection, schedule: Q04DX005 (ip), vehicle: Klucel (hydroxypropylcellulose) (HPC)) was 104 % of control, the T/C (dose: 200.0 mg/kg/injection, schedule: Q04DX005 (ip), vehicle: Klucel (hydroxypropylcellulose) (HPC)) was 119 % of control and the T/C (dose: 400.0 mg/kg/injection, schedule: Q04DX005 (ip), vehicle: Klucel (hydroxypropylcellulose) (HPC)) was 123 % of control.

In the case of `CNc1nc(N(C)C)nc(N(C)C)n1`, the T/C [1] is reported as 114 % of control, the T/C [2] is reported as 119 % of control and the T/C (dose: 200.0 mg/kg/injection, schedule: Q04DX004 (ip), vehicle: saline) is reported as 123 % of control.
